Measurements: patent US20110300116A1, “Method for Generating a Recombinant Clonal Cell Line and Novel Reagents for Use in the Method” (CELLAURA TECHNOLOGIES LTD, priority 2007, published 2011)

Target: T1, human dopamine D1 receptor (Homo sapiens, UniProt P21728)
T1 construct: expressed in transfected cells; host or cells: CHO cells
Assay: Confocal imaging of fluorescent ligand binding to a mixed population cell line expressing the human dopamine D1 receptor
Type: cell-based
Settings: ligand 10 nM; human D1-receptor expressing CHO mixed population before antibiotic resistance selection and prior to FACS sorting; confocal microscopy, FIG. 3
Experimental: In FIG. 3 is shown a confocal microscope image of N-{4-aza-3,7-dioxo-7-[4-(8-methoxy-3-methyl-2,3,4,5-tetrahydro-1H-3-benzazepine-1-yl)phenylamino]heptyl}-6-{2-[4-(2-(4,4-difluoro-4,4a-dihydro-5-(thiophen-2-yl)-4-bora-3a,4a-diaza-s-indacene-3-yl)vinyl) ligand (10 nM) binding to human dopamine D1-receptor expressing CHO “cell line” before antibiotic resistance selection and prior to FACS™ sorting. Red images (light grey) show cells binding the fluorescent D1-receptor antagonist and the blue images (dark grey) show the Hoechst staining of the cellular nuclei. It is clear that only about 20% of the cells are expressing the human dopamine D1 receptor.
A mixed population cell line expressing the human dopamine D1 receptor was screened with novel fluorescent dopamine D1 receptor antagonist N-{4-aza-3,7-dioxo-7-[4-(8-methoxy-3-methyl-2,3,4,5-tetrahydro-1H-3-benzazepine-1-yl)phenylamino]heptyl}-6-{2-[4-(2-(4,4-difluoro-4,4a-dihydro-5-(thiophen-2-yl)-4-bora-3a,4a-diaza-s-indacene-3-yl)vinyl), prepared as in Example 1. […] Using FACS cell sorting, these cells are sorted and separated into populations of cells expressing low, medium or high levels of the dopamine D1 receptor. […] A cell sorter such as the Beckman-Coulter Altra can then be used to put individual cells into single wells of a 96 well plate.

T1 sequence (P21728 whole entry): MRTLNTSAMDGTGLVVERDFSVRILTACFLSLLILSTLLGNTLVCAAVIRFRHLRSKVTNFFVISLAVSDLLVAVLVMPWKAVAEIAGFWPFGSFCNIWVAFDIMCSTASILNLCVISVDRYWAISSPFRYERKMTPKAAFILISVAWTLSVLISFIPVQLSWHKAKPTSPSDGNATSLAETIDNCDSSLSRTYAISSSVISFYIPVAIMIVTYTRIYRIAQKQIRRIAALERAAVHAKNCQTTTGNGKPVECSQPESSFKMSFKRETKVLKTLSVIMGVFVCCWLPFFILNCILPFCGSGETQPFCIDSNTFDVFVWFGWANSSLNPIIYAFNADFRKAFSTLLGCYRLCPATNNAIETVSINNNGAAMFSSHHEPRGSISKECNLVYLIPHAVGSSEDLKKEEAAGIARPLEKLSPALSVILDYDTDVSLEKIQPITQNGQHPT

cells that label with the fluorescent D1-receptor antagonist: about 20%
SMILES: CN1CCc2ccc(O)cc2C(c2ccc(NC(=O)CCNC(=O)CCNC(=O)CCCCCNC(=O)COc3ccc(/C=C/C4=[N+]5C(=Cc6ccc(-c7cccs7)n6[B-]5(F)F)C=C4)cc3)cc2)C1 (stereo not shown)
